From patent publication EP0367124A1, “Penicillanic acid derivatives” (F. HOFFMANN-LA ROCHE AG, priority 1988, dated 1990)
Where a name gives a salt, the structure may show the parent alone.

Key:
Assay in all cases: In vitro MIC, Agar Well Diffusion Method
Assay type in all cases: cell-based
[1] = system: Staphylococcus aureus 1059B; conditions: Culture Staphylococcus aureus 1059B
[2] = system: Proteus vulgaris 101N ATCC 6380; conditions: for MIC: ATCC6380, Culture Proteus vulgaris 101N ATCC 6380
Excerpt: (§1) The in vitro activity of compounds of the present invention as measured by the Minimum Inhibitory Concentration (MIC) in micrograms per milliliter (mcg/ml), utilizing the Agar Well Diffusion Method, against a variety of Gram-negative microorganisms is illustrated in the following Table, in which the compounds evaluated were as follows: • Compound A: [2S-[2α,3α,5α,6β(R*)]]-6-[[[[(4-Ethyl-2,3-dioxo-1-piperazinyl)carbonyl]amino]phenylacetyl]amino]-3-methyl-3-[[(1-methyl-1H-tetrazole-5-yl)thio]methyl]-7-oxo-4-thia-1-azabicyclo[3.2.0]-heptane-2-carboxylic acid monosodium salt sesquihydrate • Compound B: [2S-(2α,3α,5α,6β)]-3-Methyl-3-[[(1-methyl-1H-tetrazol-5-yl)-thio]methyl-7-oxo-6-[(phenylacetyl)amino]-4-thia-1-azabicyclo[3.2.0] heptane-2-carboxylic acid monosodium salt • Compound C: [2S-[2α,3α,5α,6β(Z)]]-6-[[(2-Amino-4-thiazolyl)-(methoxyimino)-acetyl]amino]-3-methyl -3-[[(1-methyl-1H-tetrazol-5-yl)thio]methyl]-7-oxo-4-thia-1-azabicyclo[3.2.0]heptane-2-carboxylic acid monosodium salt • Compound D: [2S-(2α,3α,5α,6β)]-3-(Azidomethyl)-3-methyl-7-oxo-6-[(phenylacetyl)amino]-4-thia-1-azabicyclo-[3.2.0]heptane-2-carboxylic acid monosodium salt • Compound E: [2S-(2α,3α,5α,6β)]-1-[[2-carboxy-3-methyl-7-oxo-6-[(phenylacetyl)amino]-4-thia-1-azabicyclo-[3.2.0]hept-3-yl]methylpyridinium hydroxide inner salt • Compound F: [2S-(2α,3α,5α,6β)]-3-[[(2,5-Dihydro-6-hydroxy-2-methyl-5-oxo-1,2,4-triazine-3-yl)thio] -methyl]-3-methyl-7-oxo-6-[(phenylacetyl)amino]-4-thia-1-azabicyclo[3.2.0]heptane-2-carboxylic acid disodium salt • Compound G: [2S-(2α,3α,5α,6β)]-3-[(Acetylthio)-methyl]-3-methyl-7-oxo-6-[(phenylacetyl)amino]-4-thia-1-azabicyclo[3.2.0]heptane-2-carboxylic acid monosodium salt • Compound H: [2S-(2α,3α,5α,6β)]-3-[[[3,4-bis(Acetyloxy)benzoyl]oxy]methyl]-3-methyl-7-oxo-6-[(phenylacetyl)amino]-4-thia-1-azabicyclo[3.2.0]heptane-2-carboxylic acid monosodium salt

[3] = system: Pseudomonas aeruginosa 56M; conditions: Culture Pseudomonas aeruginosa 56M
Excerpt: as §1

Escherichia coli 2721B = conditions: Culture Escherichia coli 2721B
Excerpt: as §1

Escherichia coli 3082B = conditions: Culture Escherichia coli 3082B
Excerpt: as §1

[4] = system: Micrococcus luteus PCI ATCC 9341; conditions: for MIC: ATCC9341, Culture Micrococcus luteus PCI ATCC 9341
Excerpt: as §1

Escherichia coli 3081B = conditions: Culture Escherichia coli 3081B
Excerpt: as §1

[5] = system: Streptococcus faecium ATCC 8043; conditions: for MIC: Enterococcus faecium, ATCC8043, Culture Streptococcus faecium ATCC 8043
Excerpt: as §1

[6] = system: Bacillus megaterium 164 ATCC 8011; conditions: for MIC: Priestia megaterium, ATCC8011, Culture Bacillus megaterium 164 ATCC 8011
Excerpt: as §1

[7] = system: Pseudomonas aeruginosa 56 ATCC 8079; conditions: for MIC: ATCC8079, Culture Pseudomonas aeruginosa 56 ATCC 8079
Excerpt: as §1

[8] = system: Staphylococcus aureus 3647B; conditions: Culture Staphylococcus aureus 3647B
Excerpt: as §1

[9] = system: Pseudomonas maltophilia 28978 ATCC 17445; conditions: Stenotrophomonas maltophilia, ATCC17445, Culture Pseudomonas maltophilia 28978 ATCC 17445
Excerpt: as §1

[10] = system: Bacillus subtilus 558 NRRL 558; conditions: for MIC: NRRL558, Culture Bacillus subtilus 558 NRRL 558
Excerpt: as §1

Escherichia coli 2722B = conditions: Culture Escherichia coli 2722B
Excerpt: as §1

Escherichia coli 1269B = conditions: Culture Escherichia coli 1269B
Excerpt: as §1

Proteus vulgaris 100 = conditions: Culture Proteus vulgaris 100
Excerpt: as §1

[11] = system: Staphylococcus aureus 82 ATCC 6538P; conditions: Culture Staphylococcus aureus 82 ATCC 6538P; for MIC: ATCC6538P
Excerpt: as §1

[12] = system: Staphylococcus aureus 3037B; conditions: Culture Staphylococcus aureus 3037B

| SMILES | MIC [1] | MIC [2] | MIC [3] | MIC (Escherichia coli 2721B) | MIC (Escherichia coli 3082B) | MIC [4] | MIC (Escherichia coli 3081B) | MIC [5] | MIC [6] | MIC [7] | MIC [8] | MIC [9] | MIC [10] | MIC (Escherichia coli 2722B) | MIC (Escherichia coli 1269B) | MIC (Proteus vulgaris 100) | MIC [11] | MIC [12] | further results |
| --- | --- | --- | --- | --- | --- | --- | --- | --- | --- | --- | --- | --- | --- | --- | --- | --- | --- | --- | --- |
| CCN1CCN(C(=O)NC(C(=O)NC2C(=O)N3C2SC(C)(CSc2nnnn2C)C3C(=O)O)c2ccccc2)C(=O)C1=O (stereo not drawn) [Compound A, [2S-[2α,3α,5α,6β(R*)]]-6-[[[[(4-Ethyl-2,3-dioxo-1-piperazinyl)carbonyl]amino]phenylacetyl]amino]-3-methyl-3-[[(1-methyl-1H-tetrazole-5-yl)thio]methyl]-7-oxo-4-thia-1-azabicyclo[3.2.0]-heptane-2-carboxylic acid monosodium salt sesquihydrate] | 7.8 µg/mL | 0.98 µg/mL | 0.49 µg/mL | 3.9 µg/mL | 0.24 µg/mL | 0.49 µg/mL | 15.6 µg/mL | 31.3 µg/mL | 0.12 µg/mL | 15.6 µg/mL | 500 µg/mL | 250 µg/mL | 0.98 µg/mL | 0.12 µg/mL | 62.5 µg/mL | 7.8 µg/mL | 0.98 µg/mL | 500 µg/mL | – |
| Cn1nnnc1SCC1(C)SC2C(NC(=O)Cc3ccccc3)C(=O)N2C1C(=O)O (stereo not drawn) [Compound B, [2S-(2α,3α,5α,6β)]-3-Methyl-3-[[(1-methyl-1H-tetrazol-5-yl)-thio]methyl-7-oxo-6-[(phenylacetyl)amino]-4-thia-1-azabicyclo[3.2.0]heptane-2-carboxylic acid monosodium salt] | 3.9 µg/mL | 15.6 µg/mL | 0.98 µg/mL | 62.5 µg/mL | 31.3 µg/mL | 0.03 µg/mL | > 125 µg/mL | 7.8 µg/mL | 0.015 µg/mL | 62.5 µg/mL | 125 µg/mL | > 125 µg/mL | 0.03 µg/mL | 31.3 µg/mL | > 125 µg/mL | > 125 µg/mL | 0.03 µg/mL | 125 µg/mL | – |
| CON=C(C(=O)NC1C(=O)N2C1SC(C)(CSc1nnnn1C)C2C(=O)O)c1csc(N)n1 (stereo not drawn) [Compound C, [2S-[2α,3α,5α,6β(Z)]]-6-[[(2-Amino-4-thiazolyl)-(methoxyimino)-acetyl]amino]-3-methyl-3-[[(1-methyl-1H-tetrazol-5-yl)thio]methyl]-7-oxo-4-thia-1-azabicyclo[3.2.0]heptane-2-carboxylic acid monosodium salt] | 3.9 µg/mL | 31.3 µg/mL | 0.98 µg/mL | 31.3 µg/mL | 1.95 µg/mL | 0.24 µg/mL | > 125 µg/mL | 125 µg/mL | 0.12 µg/mL | 62.5 µg/mL | 250 µg/mL | > 500 µg/mL | 0.49 µg/mL | 1.95 µg/mL | > 500 µg/mL | 250 µg/mL | 0.49 µg/mL | 250 µg/mL | – |
| CC1(CN=[N+]=[N-])SC2C(NC(=O)Cc3ccccc3)C(=O)N2C1C(=O)O (stereo not drawn) [Compound D, [2S-(2α,3α,5α,6β)]-3-(Azidomethyl)-3-methyl-7-oxo-6-[(phenylacetyl)amino]-4-thia-1-azabicyclo-[3.2.0]heptane-2-carboxylic acid monosodium salt] | 7.8 µg/mL | 15.6 µg/mL | 3.9 µg/mL | 62.5 µg/mL | 7.8 µg/mL | 0.03 µg/mL | 125 µg/mL | 7.8 µg/mL | 0.12 µg/mL | > 125 µg/mL | 125 µg/mL | > 125 µg/mL | 0.06 µg/mL | 15.6 µg/mL | > 125 µg/mL | > 125 µg/mL | 0.03 µg/mL | 125 µg/mL | – |
| CC1(C[n+]2ccccc2)SC2C(NC(=O)Cc3ccccc3)C(=O)N2C1C(=O)[O-] (stereo not drawn) [Compound E, [2S-(2α,3α,5α,6β)]-1-[[2-carboxy-3-methyl-7-oxo-6-[(phenylacetyl)amino]-4-thia-1-azabicyclo-[3.2.0]hept-3-yl]methylpyridinium hydroxideinner salt] | 15.6 µg/mL | 125 µg/mL | 3.9 µg/mL | 31.3 µg/mL | 31.3 µg/mL | 1.95 µg/mL | 125 µg/mL | 125 µg/mL | 0.49 µg/mL | 125 µg/mL | 500 µg/mL | – | 0.24 µg/mL | 31.3 µg/mL | 500 µg/mL | > 500 µg/mL | 0.49 µg/mL | 62.5 µg/mL | – |
| Cn1nc([O-])c(=O)nc1SC[C@@]1(C)S[C@@H]2[C@H](NC(=O)Cc3ccccc3)C(=O)N2[C@H]1C(=O)[O-].[Na+].[Na+] [Compound F, [2S-(2α,3α,5α,6β)]-3-[[(2,5-Dihydro-6-hydroxy-2-methyl-5-oxo-1,2,4-triazine-3-yl)thio] -methyl]-3-methyl-7-oxo-6-[(phenylacetyl)amino]-4-thia-1-azabicyclo[3.2.0]heptane-2-carboxylic acid disodium salt] | – | – | – | – | – | – | – | – | – | – | – | – | – | – | – | – | – | – | In Vitro MIC [1]: 0.24 µg/mL; In Vitro MIC ([2]; Culture Proteus vulgaris 101N ATCC 6380): 7.8 µg/mL; In Vitro MIC [3]: 0.49 µg/mL; In Vitro MIC (Escherichia coli 2721B): 31.3 µg/mL; In Vitro MIC (Escherichia coli 3082B): 0.98 µg/mL; In Vitro MIC ([4]; Culture Micrococcus luteus PCI ATCC 9341): 0.24 µg/mL; In Vitro MIC (Escherichia coli 3081B): 125 µg/mL; In Vitro MIC ([5]; Culture Streptococcus faecium ATCC 8043): 62.5 µg/mL; In Vitro MIC ([6]; Culture Bacillus megaterium 164 ATCC 8011): 0.12 µg/mL; In Vitro MIC ([7]; Culture Pseudomonas aeruginosa 56 ATCC 8079): 31.5 µg/mL; In Vitro MIC [8]: 500 µg/mL; In Vitro MIC ([10]; Culture Bacillus subtilus 558 NRRL 558): 0.12 µg/mL; In Vitro MIC (Escherichia coli 2722B): 3.9 µg/mL; In Vitro MIC (Escherichia coli 1269B): 500 µg/mL; In Vitro MIC (Proteus vulgaris 100): 250 µg/mL; In Vitro MIC [11]: 0.24 µg/mL; In Vitro MIC [12]: 500 µg/mL |
| CC(=O)SCC1(C)SC2C(NC(=O)Cc3ccccc3)C(=O)N2C1C(=O)O (stereo not drawn) [Compound G, [2S-(2α,3α,5α,6β)]-3-[(Acetylthio)methyl]-3-methyl-7-oxo-6-[(phenylacetyl)amino]-4-thia-1-azabicyclo[3.2.0]heptane-2-carboxylic acid monosodium salt] | 0.98 µg/mL | 31.3 µg/mL | 0.98 µg/mL | 62.5 µg/mL | 1.95 µg/mL | 0.06 µg/mL | 500 µg/mL | 0.98 µg/mL | – | 125 µg/mL | 250 µg/mL | > 500 µg/mL | 0.03 µg/mL | 7.8 µg/mL | – | > 500 µg/mL | 0.03 µg/mL | 250 µg/mL | – |
| CC(=O)Oc1ccc(C(=O)OCC2(C)SC3C(NC(=O)Cc4ccccc4)C(=O)N3C2C(=O)O)cc1OC(C)=O (stereo not drawn) [Compound H, [2S-(2α,3α,5α,6β)]-3-[[[3,4-bis(Acetyloxy)benzoyl]oxy]methyl]-3-methyl-7-oxo-6-[(phenylacetyl)amino]-4-thia-1-azabicyclo[3.2.0]heptane-2-carboxylic acid monosodium salt] | 7.8 µg/mL | 62.5 µg/mL | 1.95 µg/mL | 500 µg/mL | 15.6 µg/mL | 0.12 µg/mL | > 500 µg/mL | 7.8 µg/mL | – | 31.5 µg/mL | 500 µg/mL | 31.5 µg/mL | 0.12 µg/mL | 62.5 µg/mL | – | > 500 µg/mL | 0.12 µg/mL | 125 µg/mL | – |
